# In ChEMBL document CHEMBL1201862, “PubChem BioAssay data set” (2004):
# The source made the active and inactive calls.
# How the values were obtained:
# [1] = HEK293T cytotoxicity, dose response, cytotoxicity control for miR-122 modulator project, cell-based, inhibitor set, cherry-pick, set 2 (AID 720697); type: functional
# [2] = miR-122 activators in hepatoma reporter cells, dose response, cell-based, Huh7 psiCHECK-miR122, Renilla luciferase, cherry-picked (AID 651956); type: functional;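 further: huh7 hepatoma cells stably carrying a psiCHECK-2 miR-122 sensor plasmid; renilla luciferase signal reporting endogenous miR-122 activity after 48 h compound exposure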
# [3] = CRF-BP/CRF-R2 complex antagonists, dose response, cell-based, uHTS hits, 384-well (AID 651639); type: functional, Homo sapiens; conditions: read-out: IC50_Mean
# [4] = biological target: T1, DNA repair and recombination protein RAD54-like (Homo sapiens, UniProt Q92698); experiment: inhibitors of human RAD54 branch migration, confirmation, biochemical, fluorescence, cherry-picked samples, dose series (AID 651657); type: functional
# T1 sequence (Q92698 whole entry): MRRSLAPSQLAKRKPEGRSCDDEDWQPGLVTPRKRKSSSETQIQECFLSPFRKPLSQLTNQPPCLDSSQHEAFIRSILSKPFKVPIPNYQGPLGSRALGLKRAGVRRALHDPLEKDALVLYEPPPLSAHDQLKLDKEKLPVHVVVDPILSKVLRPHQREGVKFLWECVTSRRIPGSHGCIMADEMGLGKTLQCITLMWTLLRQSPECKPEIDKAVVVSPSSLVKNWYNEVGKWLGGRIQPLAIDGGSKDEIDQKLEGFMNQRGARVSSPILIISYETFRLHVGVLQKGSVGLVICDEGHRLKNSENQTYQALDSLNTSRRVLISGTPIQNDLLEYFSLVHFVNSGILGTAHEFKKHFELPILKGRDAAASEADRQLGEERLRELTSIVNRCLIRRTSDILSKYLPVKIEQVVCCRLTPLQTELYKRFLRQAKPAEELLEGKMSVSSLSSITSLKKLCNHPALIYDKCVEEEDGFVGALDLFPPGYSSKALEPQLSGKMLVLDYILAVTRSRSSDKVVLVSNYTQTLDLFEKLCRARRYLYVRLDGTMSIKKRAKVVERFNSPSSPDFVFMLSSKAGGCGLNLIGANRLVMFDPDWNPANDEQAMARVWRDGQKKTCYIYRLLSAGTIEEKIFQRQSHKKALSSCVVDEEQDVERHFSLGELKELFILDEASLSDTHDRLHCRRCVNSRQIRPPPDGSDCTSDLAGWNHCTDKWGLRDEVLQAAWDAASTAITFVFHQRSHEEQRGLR
# [5] = biological target: T2, Corticotropin-releasing factor receptor 2/Corticotropin-releasing factor-binding protein (Homo sapiens, UniProt P24387+Q13324); experiment: Dose Response confirmation of uHTS hits for small molecule antagonists of the CRF-binding protein and CRF-R2 receptor complex.; type: functional; conditions: read-out: IC50_Mean
# T2 sequence (Q13324 whole entry): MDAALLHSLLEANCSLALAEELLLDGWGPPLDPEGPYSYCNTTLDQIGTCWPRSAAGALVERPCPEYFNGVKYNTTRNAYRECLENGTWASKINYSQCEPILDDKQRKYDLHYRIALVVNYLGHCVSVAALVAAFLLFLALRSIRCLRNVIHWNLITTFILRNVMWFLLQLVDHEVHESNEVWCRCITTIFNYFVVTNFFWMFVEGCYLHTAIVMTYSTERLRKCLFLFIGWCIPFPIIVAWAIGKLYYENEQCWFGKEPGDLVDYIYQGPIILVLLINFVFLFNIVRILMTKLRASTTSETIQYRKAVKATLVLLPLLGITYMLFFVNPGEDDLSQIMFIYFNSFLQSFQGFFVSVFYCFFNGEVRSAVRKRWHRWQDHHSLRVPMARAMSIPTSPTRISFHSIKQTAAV
# T2 sequence (P24387 whole entry): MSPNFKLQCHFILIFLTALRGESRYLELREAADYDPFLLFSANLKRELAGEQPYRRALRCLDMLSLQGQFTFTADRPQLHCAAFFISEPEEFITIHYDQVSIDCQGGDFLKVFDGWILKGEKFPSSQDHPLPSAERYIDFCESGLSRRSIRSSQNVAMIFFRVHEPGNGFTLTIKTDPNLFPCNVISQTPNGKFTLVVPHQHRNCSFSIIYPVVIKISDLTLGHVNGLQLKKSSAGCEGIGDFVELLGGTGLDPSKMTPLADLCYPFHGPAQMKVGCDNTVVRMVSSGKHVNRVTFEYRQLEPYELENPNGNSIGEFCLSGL
# [6] = biological target: T2, Corticotropin-releasing factor receptor 2/Corticotropin-releasing factor-binding protein; experiment: activators of CRF receptor 2 with binding protein – uHTS hits, confirmation (AID 602473); type: functional; conditions: read-out: EC50_Mean
# [7] = biological target: T3, Sentrin-specific protease 8 (Homo sapiens, UniProt Q96LD8); type: functional
# T3 sequence (Q96LD8 whole entry): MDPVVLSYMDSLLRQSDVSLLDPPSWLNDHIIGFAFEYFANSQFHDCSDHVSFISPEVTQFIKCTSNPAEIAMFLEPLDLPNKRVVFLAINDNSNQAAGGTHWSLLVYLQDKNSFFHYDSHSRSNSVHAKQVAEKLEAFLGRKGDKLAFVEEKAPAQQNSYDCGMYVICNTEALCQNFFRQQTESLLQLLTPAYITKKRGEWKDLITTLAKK
# [8] = biological target: T4, Rac GTPase-activating protein 1 (Homo sapiens, UniProt Q9H0H5); experiment: MgcRacGAP GTPase-activating activity inhibitors, confirmation, biochemical, ADP Hunter fluorescence, primary and confirmatory (AID 624330); type: functional
# T4 sequence (Q9H0H5 whole entry): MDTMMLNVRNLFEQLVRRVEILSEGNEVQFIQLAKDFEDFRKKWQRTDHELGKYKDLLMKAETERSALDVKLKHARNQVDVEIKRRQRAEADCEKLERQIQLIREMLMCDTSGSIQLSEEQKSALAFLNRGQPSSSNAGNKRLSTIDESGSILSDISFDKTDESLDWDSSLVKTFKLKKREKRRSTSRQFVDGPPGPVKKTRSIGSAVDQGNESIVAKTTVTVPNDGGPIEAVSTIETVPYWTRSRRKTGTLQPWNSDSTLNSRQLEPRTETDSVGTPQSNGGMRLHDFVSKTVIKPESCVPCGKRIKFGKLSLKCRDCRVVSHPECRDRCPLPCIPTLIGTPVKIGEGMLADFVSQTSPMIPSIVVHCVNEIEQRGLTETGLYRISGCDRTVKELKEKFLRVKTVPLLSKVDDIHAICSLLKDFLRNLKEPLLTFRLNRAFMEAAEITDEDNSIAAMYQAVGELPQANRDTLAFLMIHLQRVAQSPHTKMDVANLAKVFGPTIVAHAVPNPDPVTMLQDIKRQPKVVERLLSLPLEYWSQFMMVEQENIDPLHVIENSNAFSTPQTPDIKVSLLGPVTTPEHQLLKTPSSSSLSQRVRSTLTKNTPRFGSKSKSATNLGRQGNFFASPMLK
# [9] = biological target: T3, Sentrin-specific protease 8; type: functional; remark: listed apart in the source
# [10] = biological target: T5, Apoptotic protease-activating factor 1 (Homo sapiens, UniProt O14727); experiment: SAR analysis of small molecule Activators of Apaf-1 in a Fluorescent assay.; type: functional; conditions: read-out: EC50_Mean;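 further: caspase-3 cleavage of fluorogenic Rh110 DEVD substrate downstream of apoptosome activation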
# T5 sequence (O14727 whole entry): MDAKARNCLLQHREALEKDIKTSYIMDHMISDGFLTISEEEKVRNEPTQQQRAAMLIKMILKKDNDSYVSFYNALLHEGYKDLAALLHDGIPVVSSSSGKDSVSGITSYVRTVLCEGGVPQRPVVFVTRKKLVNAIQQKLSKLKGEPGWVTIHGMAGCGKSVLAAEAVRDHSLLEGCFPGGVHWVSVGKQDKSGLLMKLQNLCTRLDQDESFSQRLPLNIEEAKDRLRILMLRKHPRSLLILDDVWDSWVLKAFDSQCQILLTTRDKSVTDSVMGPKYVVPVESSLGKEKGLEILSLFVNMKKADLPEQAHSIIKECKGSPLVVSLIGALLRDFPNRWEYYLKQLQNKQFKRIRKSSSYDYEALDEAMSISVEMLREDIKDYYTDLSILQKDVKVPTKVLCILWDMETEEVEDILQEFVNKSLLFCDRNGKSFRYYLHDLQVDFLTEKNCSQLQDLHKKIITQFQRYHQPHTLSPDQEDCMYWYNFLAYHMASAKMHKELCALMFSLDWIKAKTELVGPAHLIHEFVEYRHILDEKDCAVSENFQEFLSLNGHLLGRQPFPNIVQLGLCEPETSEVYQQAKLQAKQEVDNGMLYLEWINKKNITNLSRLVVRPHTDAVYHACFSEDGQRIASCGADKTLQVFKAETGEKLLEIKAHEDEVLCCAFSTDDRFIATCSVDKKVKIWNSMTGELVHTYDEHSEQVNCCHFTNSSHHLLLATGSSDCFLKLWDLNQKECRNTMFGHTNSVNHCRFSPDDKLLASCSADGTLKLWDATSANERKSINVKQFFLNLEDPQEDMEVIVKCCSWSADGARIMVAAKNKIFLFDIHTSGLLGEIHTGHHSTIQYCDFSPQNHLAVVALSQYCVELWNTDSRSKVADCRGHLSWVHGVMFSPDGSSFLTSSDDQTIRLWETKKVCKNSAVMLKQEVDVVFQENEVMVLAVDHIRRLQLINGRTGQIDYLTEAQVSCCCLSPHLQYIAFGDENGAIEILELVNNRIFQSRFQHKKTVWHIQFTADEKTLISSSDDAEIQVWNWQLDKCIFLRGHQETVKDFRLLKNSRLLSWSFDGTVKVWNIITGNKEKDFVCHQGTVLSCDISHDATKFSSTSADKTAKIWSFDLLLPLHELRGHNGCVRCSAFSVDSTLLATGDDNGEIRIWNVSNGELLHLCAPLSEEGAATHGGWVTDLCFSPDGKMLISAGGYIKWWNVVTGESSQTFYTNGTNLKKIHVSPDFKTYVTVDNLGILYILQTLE
# [11] = cytotoxicity toward NIH3T3 fibroblasts, dose response, counter-screen, cell-based, ATP luminescence, mouse fibroblasts (AID 2010); type: functional;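 further: cells exposed to compound for about 90 hours before reading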
# [12] = inhibitors of intracellular T. cruzi replication, confirmation, NIH3T3 host cells, beta-gal luminescence (AID 2044); type: functional, cell-based;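 further: intracellular parasites grown in NIH/3T3 mouse fibroblasts as host cells; luminescent beta-galactosidase reporter signal from transgenic T. cruzi replicating inside host cells; inhibitors lower the luminescence signal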
# Fatty acid synthase [13] = biological target: T6, Fatty acid synthase (Homo sapiens, UniProt P49327); experiment: FAS thioesterase domain inhibitors, dose response, biochemical, endpoint fluorescence intensity, uHTS hits (AID 624327); type: functional;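 further: fluorescence from hydrolysis of an O-methyl fluorescein acyl ester substrate by the enzyme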
# Fatty acid synthase [14] = biological target: T6, Fatty acid synthase; experiment: FAS thioesterase domain inhibitors, dose response, biochemical, kinetic fluorescence intensity (AID 624326); type: functional;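 further: rate of fluorescence rise from hydrolysis of a fluorogenic O-methyl fluorescein ester substrate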
# [15] = cytotoxicity in HEK-293T cells, dose response, cytotoxicity control for TCR NF-kB inhibitor project, luminescence, T-cell screen hits (AID 489026); type: functional, cell-based;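 further: cells exposed to compound about 14 hours before the viability readout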
# [16] = growth suppression of beta-catenin-knockout colon cells, dose response, cell-based, HCT116, human colon tumor (AID 1045); type: functional;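 further: HCT116 colon tumor cells with beta catenin knocked out; cells exposed to compound for 60 hours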
# [17] = biological target: Heat shock protein HSP 90-alpha (Homo sapiens, UniProt P07900); type: functional, organism-based
# [18] = biological target: T7, Ubiquitin-conjugating enzyme E2 N (Homo sapiens, UniProt P61088); type: functional;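 further: Dose-response confirmation in a TR-FRET assay detecting UBC13-driven polyubiquitin chain formation, inhibition measured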
# T7 sequence (P61088 whole entry): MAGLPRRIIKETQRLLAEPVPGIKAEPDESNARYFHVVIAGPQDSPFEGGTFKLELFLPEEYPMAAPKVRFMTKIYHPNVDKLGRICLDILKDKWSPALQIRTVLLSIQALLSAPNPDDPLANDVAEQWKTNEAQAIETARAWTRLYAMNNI
# [19] = growth suppression of PTEN-null colon cells, dose response, cell-based, HCT116 PTEN knockout (AID 1047); type: functional;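 further: HCT116 colon tumor cells with PTEN knocked out; cells exposed to compound for 60 hours before readout; potency for loss of cell viability measured by luminescence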
# [20] = biological target: Eukaryotic translation initiation factor 4E (Mus musculus, UniProt P63073); experiment: eIF4E–eIF4G protein interaction inhibitors, dose response, biochemical, TR-FRET (AID 855); type: functional;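 further: potency for disrupting eIF4E binding to eIF4GI seen as loss of FRET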
# Melanocortin receptor 4 = Melanocortin receptor 4 (Homo sapiens, UniProt P32245); type: functional, cell-based;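 further: Cell-based assay with luminescence read-out, confirmatory dose-response testing for agonist activity of biased ligands at MC4R; human U2OS cells with tagged receptor and beta-arrestin; potency of agonists that increase receptor coupling to beta-arrestin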
# H9c2 = experiment: cells; type: functional, cell-based; conditions: Rattus norvegicus, H9c2, Myocardium;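 further: confirmatory concentration-response retest of ultra-high-throughput screening hits for modulation of myocardial damage; cell death induced by hydrogen peroxide oxidative stress; compound pretreatment for 60 min then peroxide exposure for 2 h; potency is for protecting the cells against peroxide damage rather than for killing them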
# Melanocortin receptor 4, sequence (P32245 whole entry): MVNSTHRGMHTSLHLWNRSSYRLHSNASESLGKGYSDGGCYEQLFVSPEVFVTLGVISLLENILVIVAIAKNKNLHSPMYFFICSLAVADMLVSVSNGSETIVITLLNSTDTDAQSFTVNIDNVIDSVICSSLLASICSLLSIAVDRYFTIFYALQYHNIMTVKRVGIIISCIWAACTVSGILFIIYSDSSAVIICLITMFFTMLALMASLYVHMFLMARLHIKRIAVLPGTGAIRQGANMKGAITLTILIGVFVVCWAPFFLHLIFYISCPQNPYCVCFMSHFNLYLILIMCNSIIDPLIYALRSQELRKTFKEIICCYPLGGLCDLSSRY
# T6 sequence (P49327 whole entry, the tested form may be a part): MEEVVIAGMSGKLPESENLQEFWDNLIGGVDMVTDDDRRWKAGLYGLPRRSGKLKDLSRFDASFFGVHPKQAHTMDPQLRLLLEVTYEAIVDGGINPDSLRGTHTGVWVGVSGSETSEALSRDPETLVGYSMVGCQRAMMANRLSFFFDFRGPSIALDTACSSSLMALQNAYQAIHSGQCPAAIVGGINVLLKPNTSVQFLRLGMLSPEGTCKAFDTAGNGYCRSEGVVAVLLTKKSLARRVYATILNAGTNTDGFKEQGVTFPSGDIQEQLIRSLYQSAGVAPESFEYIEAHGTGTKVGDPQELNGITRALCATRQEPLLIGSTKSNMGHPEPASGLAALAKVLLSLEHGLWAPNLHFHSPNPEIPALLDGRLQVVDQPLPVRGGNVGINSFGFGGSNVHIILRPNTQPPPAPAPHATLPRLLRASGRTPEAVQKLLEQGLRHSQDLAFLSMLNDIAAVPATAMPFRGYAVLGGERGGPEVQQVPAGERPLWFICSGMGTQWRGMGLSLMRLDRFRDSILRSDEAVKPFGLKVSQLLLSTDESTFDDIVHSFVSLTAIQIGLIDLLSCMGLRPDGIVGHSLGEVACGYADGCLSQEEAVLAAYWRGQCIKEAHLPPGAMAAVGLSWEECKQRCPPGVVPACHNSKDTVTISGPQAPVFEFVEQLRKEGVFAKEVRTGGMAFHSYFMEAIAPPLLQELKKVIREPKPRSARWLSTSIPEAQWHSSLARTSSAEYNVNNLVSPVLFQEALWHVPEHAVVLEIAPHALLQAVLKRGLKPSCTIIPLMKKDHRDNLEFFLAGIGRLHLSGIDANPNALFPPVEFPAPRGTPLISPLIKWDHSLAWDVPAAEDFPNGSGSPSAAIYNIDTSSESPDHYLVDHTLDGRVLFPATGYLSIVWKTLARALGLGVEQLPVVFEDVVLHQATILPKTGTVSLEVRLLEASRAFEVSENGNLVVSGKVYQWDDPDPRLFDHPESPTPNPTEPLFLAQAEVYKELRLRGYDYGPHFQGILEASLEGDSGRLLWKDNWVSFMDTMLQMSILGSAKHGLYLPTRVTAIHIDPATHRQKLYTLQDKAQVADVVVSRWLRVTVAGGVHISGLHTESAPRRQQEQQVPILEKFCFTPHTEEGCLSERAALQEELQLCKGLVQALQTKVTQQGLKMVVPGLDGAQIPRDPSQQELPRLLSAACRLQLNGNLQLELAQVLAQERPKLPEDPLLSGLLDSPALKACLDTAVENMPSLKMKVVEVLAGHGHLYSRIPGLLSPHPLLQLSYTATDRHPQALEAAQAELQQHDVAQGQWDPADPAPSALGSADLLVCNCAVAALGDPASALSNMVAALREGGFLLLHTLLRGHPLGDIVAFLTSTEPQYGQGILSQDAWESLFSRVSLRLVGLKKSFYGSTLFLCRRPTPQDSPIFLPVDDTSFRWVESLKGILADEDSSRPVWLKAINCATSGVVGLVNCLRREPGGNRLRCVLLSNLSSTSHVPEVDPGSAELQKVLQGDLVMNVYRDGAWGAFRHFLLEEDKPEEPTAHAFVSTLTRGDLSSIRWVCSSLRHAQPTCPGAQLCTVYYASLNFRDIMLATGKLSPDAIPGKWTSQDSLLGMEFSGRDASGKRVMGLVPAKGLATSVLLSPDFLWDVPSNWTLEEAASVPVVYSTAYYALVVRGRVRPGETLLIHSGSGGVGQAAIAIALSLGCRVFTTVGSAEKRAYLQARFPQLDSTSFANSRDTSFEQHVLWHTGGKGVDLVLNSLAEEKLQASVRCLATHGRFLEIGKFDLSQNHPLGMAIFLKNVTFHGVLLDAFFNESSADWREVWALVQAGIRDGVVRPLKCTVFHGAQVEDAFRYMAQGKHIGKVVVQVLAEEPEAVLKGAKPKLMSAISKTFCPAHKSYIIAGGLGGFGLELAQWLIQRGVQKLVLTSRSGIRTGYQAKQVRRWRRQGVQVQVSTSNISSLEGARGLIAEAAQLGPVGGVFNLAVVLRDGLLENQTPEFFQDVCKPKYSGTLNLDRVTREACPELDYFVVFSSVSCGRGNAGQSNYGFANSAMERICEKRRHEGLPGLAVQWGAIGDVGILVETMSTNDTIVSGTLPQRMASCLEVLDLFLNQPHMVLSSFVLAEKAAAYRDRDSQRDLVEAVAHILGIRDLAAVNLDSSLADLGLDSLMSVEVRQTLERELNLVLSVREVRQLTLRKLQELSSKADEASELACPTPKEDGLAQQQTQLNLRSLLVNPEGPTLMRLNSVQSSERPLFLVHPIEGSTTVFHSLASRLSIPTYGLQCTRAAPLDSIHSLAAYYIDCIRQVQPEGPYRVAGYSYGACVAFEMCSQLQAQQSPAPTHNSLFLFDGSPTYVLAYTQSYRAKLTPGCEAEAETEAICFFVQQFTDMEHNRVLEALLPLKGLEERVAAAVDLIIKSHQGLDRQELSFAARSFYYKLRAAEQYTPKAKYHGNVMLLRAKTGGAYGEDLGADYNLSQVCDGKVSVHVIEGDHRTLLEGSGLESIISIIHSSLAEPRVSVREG
# Eukaryotic translation initiation factor 4E, sequence (P63073 whole entry): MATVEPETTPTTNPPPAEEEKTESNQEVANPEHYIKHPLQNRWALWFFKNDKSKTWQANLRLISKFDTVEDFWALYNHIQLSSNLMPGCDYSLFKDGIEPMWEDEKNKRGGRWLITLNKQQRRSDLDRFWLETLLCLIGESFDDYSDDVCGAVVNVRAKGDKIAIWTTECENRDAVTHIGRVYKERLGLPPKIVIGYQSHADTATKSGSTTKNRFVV
smiles,measurement,setting,value
COc1ccccc1C#Cc1ccc2c(c1)O[C@H](CN(C)Cc1cccnc1)[C@@H](C)CN([C@@H](C)CO)S2(=O)=O,AC50,[1],0.944 µM (active)
same,AC50,[2],25.6 µM (active)
COc1ccc(C(=O)O/N=C(\N)Cc2ccc(Cl)c(Cl)c2)cc1OC,IC50,[3],5.1 µM (active)
CN(C)CCN(C(=O)c1ccco1)c1nc2cc3c(cc2s1)OCCO3,AC50,[4],30.6 µM (active)
Cc1ccc(-n2nnnc2SCc2nnc(-c3ccccc3Br)o2)c(C)c1,IC50,[5],2.72 µM (active)
same,EC50,[6],> 53 µM (inactive)
same,IC50,[3],10.7 µM (active)
COc1ccc(NCc2ccc([N+](=O)[O-])s2)c(OC)c1,IC50,[7],13.5 µM (active)
same,IC50,[8],34.4 µM (active)
same,IC50,[9],11.6 µM (active)
CC1CCCC(C)N1C(=O)C1CC(c2ccc(F)cc2)=NO1 (configuration not stated),EC50,[10],> 100 µM (inactive)
CN(C)CCN(C(=O)CN1C(=O)c2ccccc2C1=O)c1nc2cc3c(cc2s1)OCCO3,EC50,[11],> 60 µM (not active)
same,EC50,cells,0.163 µM (active)
same,AC50,[4],57.6 µM (active)
same,EC50,[12],< 0.1 µM (active)
COc1ccc([N+](=O)[O-])cc1N(CC(O)Cn1nnc2ccccc21)S(=O)(=O)c1ccc(C)cc1 (configuration not stated),IC50,[5],4.39 µM (active)
same,IC50,Fatty acid synthase [13],10.8 µM (active)
same,IC50,Fatty acid synthase [14],8.07 µM (active)
same,EC50,[6],> 53 µM (inactive)
same,IC50,[3],8.96 µM (active)
CCCCCCCCCCCCCCCC[n+]1ccc(C=NO)cc1,IC50,[15],67.7 µM (inactive)
same,EC50,[16],0.884 µM (active)
same,AC50,[17],3.1 µM (active)
same,IC50,[18],> 20 µM (inactive)
same,EC50,[19],1.26 µM (active)
same,IC50,[20],12.7 µM (active)
same,EC50,Melanocortin receptor 4,> 3.3 µM (active)
CC(=O)Nc1cc(-c2ccc(C(=O)NC3CC3)cc2)cn2c(-c3cccc(C(C)=O)c3)cnc12,IC50,H9c2,16.3 µM (active)
same,EC50,Melanocortin receptor 4,> 89.2 µM (inactive)
O=C1SCCN1N=Cc1ccc([N+](=O)[O-])o1,IC50,[7],> 100 µM (inactive)
same,IC50,[9],61 µM (inactive)
O=C1CC2(CC(c3c(F)cccc3Cl)=NO2)C(=O)N1c1ccccc1 (configuration not stated),EC50,[10],> 100 µM (inactive)
COCC(=O)N(C)C[C@H]1Oc2cc(-c3ccccc3F)ccc2S(=O)(=O)N([C@@H](C)CO)C[C@H]1C,AC50,[1],8.35 µM (active)
same,AC50,[2],3.15 µM (active)
COc1cc(-c2cc(NC=O)c3ncc(-c4ccccc4)n3c2)cc(OC)c1OC,IC50,H9c2,> 79 µM (inactive)
same,EC50,Melanocortin receptor 4,> 89.2 µM (inactive)
CCc1ccc(-c2ccc(=O)[nH]n2)cc1S(=O)(=O)CCC(=O)Nc1ccccc1OC,EC50,[10],> 100 µM (inactive)
